Results published in US11471448B2 (priority 2020, dated 2022).

System: rat venous stasis model, LPS-induced ARDS
Test: Rat venous stasis (Wessler) model after LPS-induced lung injury (ARDS induced thrombosis)
Type: in vivo
Settings: 250 mg/kg oral gavage 3, 24, 48, 72 h post LPS instillation; Sprague-Dawley rats; 30 min stasis
Description: This study assessed the efficacy of ABC294640 to reduce the incidence of adverse thromboembolic events in situ in acute respiratory distress syndrome (ARDS) conditions using a rat venous stasis model. This assay is designed to measure thrombotic risks following LPS-induced lung injury. LPS-induced lung injury is one of the most commonly used rodent models for ARDS and was described to mimic the neutrophilic inflammatory response observed in ARDS patients. The mechanism of LPS-induced ARDS is based on damage to endothelial cells and a systemic inflammatory response. […]
Sprague-Dawley rats (male) weighing between 275 and 400 g were used for this study. […] The body weight was recorded before the instillation and 24, 48 and 72 hours post-instillation.
In this study, ARDS was induced by intratracheal instillation of LPS. […] The segment was then excised and its content scored. […]
• 1. Prior LPS or saline instillation, the functional respiratory parameters of all rat was assessed by whole-body plethysmography and SpO2 was evaluated on conscious rat with a collar probe pulse oximeter. […] The respiratory rate, the Penh and the inspiratory/expiratory time measurements was analyzed. • 2. […]
• 5. Rats were evaluated periodically to ensure animal well-being (general behavior and daily body weight). • 6. […] SpO2 and whole-body plethysmography were also evaluated 24, 48 and 72 hours post-instillation. • 8. […]

Structure (SMILES): O=C(NCc1ccncc1)C12CC3CC(C1)CC(c1ccc(Cl)cc1)(C3)C2 [ABC294640, 3-(4-chlorophenyl)-adamantane-1-carboxylic acid (pyridin-4-ylmethyl)amide]
- thrombosis (blood clot length, weight and total thrombus score): reduction of thrombosis
